Values after ≈ are worked out from the molar mass of the structure shown.
Columns and labels:
[1] = system: Mycobacterium tuberculosis; assay: Antimycobacterial activity against Mycobacterium tuberculosis H37Rv assessed as bacterial growth inhibition; format: functional
[2] = target: T1, 4'-phosphopantetheinyl transferase PptT (Mycobacterium tuberculosis, UniProt O33336); assay: Inhibition of Mycobacterium tuberculosis H37Rv PptT by BpsA-coupled assay
T1 sequence (O33336 whole entry): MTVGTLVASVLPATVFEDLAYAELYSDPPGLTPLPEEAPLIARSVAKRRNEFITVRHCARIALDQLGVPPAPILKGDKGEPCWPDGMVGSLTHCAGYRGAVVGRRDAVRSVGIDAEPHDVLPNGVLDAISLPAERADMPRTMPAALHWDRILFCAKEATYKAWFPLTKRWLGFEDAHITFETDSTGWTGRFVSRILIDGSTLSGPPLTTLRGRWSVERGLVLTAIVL

[3] = target: T1, 4'-phosphopantetheinyl transferase PptT; assay: Inhibition of Mycobacterium tuberculosis H37Rv PptT by fluorescence polarization assay
[4] = target: T1, 4'-phosphopantetheinyl transferase PptT; assay: Inhibition of his-tagged Mycobacterium tuberculosis PptT expressed in Escherichia coli BL21 cells by BpsA-coupled assay
[5] = target: T1, 4'-phosphopantetheinyl transferase PptT; assay: Inhibition of Mycobacterium tuberculosis PptT by fluorescence polarization assay
[6] = Permeability of compound in human Caco-2 cells; format: ADME, cell-based; details: read-out: permeability
[7] = Cytotoxicity against human HepG2 cells; format: toxicity, cell-based; details: read-out: TC50 (the source's name)
[8] = Cytotoxicity against human THP-1 cells; format: toxicity, cell-based; details: read-out: TC50 (the source's name)
[9] = Lipophilicity, logD of compound at pH 7.4; format: physicochemical; details: buffer
[10] = Solubility of compound; format: physicochemical
[11] = target: Voltage-gated inwardly rectifying potassium channel KCNH2 (Homo sapiens, UniProt Q12809); assay: Inhibition of hERG transfected in HEK cells by automatic patch clamp analysis; format: toxicity, cell-based
Voltage-gated inwardly rectifying potassium channel KCNH2, sequence (Q12809 whole entry): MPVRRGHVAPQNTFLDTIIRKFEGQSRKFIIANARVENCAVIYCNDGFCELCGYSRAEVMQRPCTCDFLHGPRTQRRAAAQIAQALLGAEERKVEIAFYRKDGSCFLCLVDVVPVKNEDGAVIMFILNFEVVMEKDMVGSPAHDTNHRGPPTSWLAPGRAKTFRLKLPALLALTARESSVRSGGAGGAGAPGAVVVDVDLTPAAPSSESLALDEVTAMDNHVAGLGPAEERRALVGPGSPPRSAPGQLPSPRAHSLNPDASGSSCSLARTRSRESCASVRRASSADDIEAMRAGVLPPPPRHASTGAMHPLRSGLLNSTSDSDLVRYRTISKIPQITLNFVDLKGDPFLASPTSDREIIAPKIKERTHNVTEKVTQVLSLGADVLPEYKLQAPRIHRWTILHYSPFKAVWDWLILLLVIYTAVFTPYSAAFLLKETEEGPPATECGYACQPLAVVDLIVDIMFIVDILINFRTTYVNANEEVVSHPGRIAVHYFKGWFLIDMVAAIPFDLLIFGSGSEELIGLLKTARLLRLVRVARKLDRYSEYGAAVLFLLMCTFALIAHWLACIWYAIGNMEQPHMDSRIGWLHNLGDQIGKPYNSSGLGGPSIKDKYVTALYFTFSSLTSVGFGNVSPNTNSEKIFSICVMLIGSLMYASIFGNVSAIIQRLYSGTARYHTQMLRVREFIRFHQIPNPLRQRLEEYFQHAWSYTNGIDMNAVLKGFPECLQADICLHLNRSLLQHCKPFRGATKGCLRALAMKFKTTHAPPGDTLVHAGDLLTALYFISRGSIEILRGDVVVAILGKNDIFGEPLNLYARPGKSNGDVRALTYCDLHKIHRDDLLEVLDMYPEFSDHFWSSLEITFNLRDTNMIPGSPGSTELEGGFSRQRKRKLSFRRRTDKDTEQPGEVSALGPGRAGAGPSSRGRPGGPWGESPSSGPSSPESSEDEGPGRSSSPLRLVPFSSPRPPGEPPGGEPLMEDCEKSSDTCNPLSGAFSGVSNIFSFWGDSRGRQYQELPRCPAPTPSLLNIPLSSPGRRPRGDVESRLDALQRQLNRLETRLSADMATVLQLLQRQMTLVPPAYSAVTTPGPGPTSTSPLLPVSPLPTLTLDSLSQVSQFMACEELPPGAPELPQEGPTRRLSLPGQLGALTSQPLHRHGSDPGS

[12] = target: Voltage-dependent L-type calcium channel subunit alpha-1C (Homo sapiens, UniProt Q13936); assay: Inhibition of human Cav1.2 cardiac ion channel transfected in HEK cells by automatic patch clamp analysis; format: toxicity, cell-based
Voltage-dependent L-type calcium channel subunit alpha-1C, sequence (Q13936 whole entry): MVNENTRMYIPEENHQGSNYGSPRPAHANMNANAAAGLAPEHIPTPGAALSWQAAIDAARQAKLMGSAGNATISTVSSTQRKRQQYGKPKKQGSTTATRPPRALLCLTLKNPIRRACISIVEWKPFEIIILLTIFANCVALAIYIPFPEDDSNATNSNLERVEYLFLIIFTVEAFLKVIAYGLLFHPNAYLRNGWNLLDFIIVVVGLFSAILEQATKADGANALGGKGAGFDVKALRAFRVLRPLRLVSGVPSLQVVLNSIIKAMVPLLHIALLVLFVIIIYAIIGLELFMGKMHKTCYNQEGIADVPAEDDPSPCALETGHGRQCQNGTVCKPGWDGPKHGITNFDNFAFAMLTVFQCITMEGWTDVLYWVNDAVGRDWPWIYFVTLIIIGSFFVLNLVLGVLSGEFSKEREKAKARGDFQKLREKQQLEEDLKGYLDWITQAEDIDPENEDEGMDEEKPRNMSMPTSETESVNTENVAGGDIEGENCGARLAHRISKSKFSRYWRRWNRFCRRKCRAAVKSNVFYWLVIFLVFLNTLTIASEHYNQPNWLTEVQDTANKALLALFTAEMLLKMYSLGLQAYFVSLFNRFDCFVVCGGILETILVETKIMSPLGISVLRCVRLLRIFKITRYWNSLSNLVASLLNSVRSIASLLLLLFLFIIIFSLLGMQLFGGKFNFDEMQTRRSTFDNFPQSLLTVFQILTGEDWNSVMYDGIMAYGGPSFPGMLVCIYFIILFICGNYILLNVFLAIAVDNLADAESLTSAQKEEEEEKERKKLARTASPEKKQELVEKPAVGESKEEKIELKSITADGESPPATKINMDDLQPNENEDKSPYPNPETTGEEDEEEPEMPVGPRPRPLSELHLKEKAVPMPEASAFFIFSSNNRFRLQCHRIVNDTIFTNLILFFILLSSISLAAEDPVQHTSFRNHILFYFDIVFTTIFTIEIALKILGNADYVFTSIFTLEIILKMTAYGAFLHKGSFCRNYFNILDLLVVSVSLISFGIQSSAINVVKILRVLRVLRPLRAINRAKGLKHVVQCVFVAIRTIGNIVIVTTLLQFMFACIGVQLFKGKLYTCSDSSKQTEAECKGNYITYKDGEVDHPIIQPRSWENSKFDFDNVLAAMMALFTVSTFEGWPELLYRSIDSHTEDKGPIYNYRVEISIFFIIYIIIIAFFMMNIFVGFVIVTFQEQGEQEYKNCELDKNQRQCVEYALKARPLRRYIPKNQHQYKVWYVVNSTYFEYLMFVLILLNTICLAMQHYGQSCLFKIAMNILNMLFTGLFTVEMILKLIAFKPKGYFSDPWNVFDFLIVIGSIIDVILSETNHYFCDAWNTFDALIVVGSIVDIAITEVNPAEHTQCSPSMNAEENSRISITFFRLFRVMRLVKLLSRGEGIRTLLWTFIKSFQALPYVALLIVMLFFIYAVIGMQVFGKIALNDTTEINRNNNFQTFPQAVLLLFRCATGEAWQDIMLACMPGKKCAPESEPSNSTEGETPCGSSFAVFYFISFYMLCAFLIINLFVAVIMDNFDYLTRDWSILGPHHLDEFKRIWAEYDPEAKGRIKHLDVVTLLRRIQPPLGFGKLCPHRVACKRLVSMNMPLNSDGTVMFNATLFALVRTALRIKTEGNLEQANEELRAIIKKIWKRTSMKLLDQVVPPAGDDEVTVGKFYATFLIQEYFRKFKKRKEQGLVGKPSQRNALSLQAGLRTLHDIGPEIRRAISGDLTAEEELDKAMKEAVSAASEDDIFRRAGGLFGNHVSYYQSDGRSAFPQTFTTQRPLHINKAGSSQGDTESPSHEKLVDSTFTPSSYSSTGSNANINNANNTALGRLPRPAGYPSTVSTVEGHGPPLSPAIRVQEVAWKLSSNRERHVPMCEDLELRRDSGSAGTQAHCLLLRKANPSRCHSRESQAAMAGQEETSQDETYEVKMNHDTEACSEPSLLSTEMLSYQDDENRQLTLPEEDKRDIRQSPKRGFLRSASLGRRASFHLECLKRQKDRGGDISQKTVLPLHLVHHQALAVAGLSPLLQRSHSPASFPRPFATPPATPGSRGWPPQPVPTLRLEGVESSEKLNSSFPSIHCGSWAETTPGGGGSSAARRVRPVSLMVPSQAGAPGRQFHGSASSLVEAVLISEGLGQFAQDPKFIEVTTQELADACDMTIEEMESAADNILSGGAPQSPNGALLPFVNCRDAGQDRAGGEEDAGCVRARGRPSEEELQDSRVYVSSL

[13] = target: Sodium channel protein type 5 subunit alpha (Homo sapiens, UniProt Q14524); assay: Inhibition of human Nav1.5 channel ion channel transfected in HEK cells by automatic patch clamp analysis; format: toxicity, cell-based

Structure (SMILES) | MIC90 [1] [µM] | IC50 [2] [µM] | IC50 [3] [µM] | other results
CCNc1nc(Nc2c(CC)cccc2CC)ccc1OC | 62 (≈ 18.6 µg/mL) | 87 | > 100 | 
CCc1cccc(CC)c1Nc1cccc(NCC(C)C)n1 | 17 (≈ 5.06 µg/mL) | > 100 | > 100 | 
CCc1cccc(CC)c1/N=C1\CN(CC)C(=N)N1 |  | 16 |  | 
C=C(NCC)NC(=O)Nc1c(CC)cccc1CC | 3.1 (≈ 0.81 µg/mL) |  |  | IC50 [4]: 2.3 µM; IC50 [5]: 0.23 µM; Papp [6]: 4 ×10⁻⁶ cm/s; CC50 [7]: > 30 µM; CC50 [8]: > 30 µM; logD [9]: 1.09; solubility [10]: > 1000 µg/mL; IC50 [11]: > 30 µM; IC50 [12]: 8.4 µM; IC50 [13]: 3.8 µM
CCNc1cc(C)cc(Nc2c(CC)cccc2CC)n1 | 22 (≈ 6.24 µg/mL) | 6.4 |  | 
CCNc1ccc(C(F)(F)F)c(Nc2c(CC)cccc2CC)n1 | 43 (≈ 14.5 µg/mL) | 30 | > 100 | IC50 [11]: > 30 µM; IC50 [12]: 15 µM; IC50 [13]: 14 µM
CCc1cccc(CC)c1Nc1cccc(NC)n1 | 42 (≈ 10.7 µg/mL) | 20 |  | IC50 [11]: 7.5 µM; IC50 [12]: < 3 µM; IC50 [13]: 3.8 µM
CCNc1cccc(Nc2c(CC(F)(F)F)cccc2CC(F)(F)F)n1 | > 100 | > 100 | 1.3 | 
CCNc1cccc(Nc2c(C(C)C)cccc2C(C)C)n1 | > 100 |  | > 100 | 
CCc1cccc(CC)c1Nc1cccc(NC(C)C)n1 | 32 (≈ 9.07 µg/mL) | > 100 | > 100 | 
CCNC1=N/C(=N/c2c(Cl)cccc2Cl)CN1 |  |  |  | IC50 [11]: > 30 µM; IC50 [12]: > 30 µM; IC50 [13]: > 30 µM
CCNc1ccc(C)c(Nc2c(CC)cccc2CC)n1 | 55 (≈ 15.6 µg/mL) | 1.8 |  | 
CCNc1ccc(Cl)c(Nc2c(CC)cccc2CC)n1 | > 100 | > 100 |  | 
CCNc1cccc(Nc2c(CC)cc(C(=O)NC)cc2CC)n1 | 69 (≈ 22.5 µg/mL) |  | 3.3 | 
CCc1cccc(CC)c1/N=C1\CNC(=N)N1CC |  | 84 |  | 
CCNc1cccc(Nc2c(CC)cc(S(=O)(=O)NCC)cc2CC)n1 | > 100 |  | 1 | 
CCc1cccc(CC)c1Nc1cccc(NC(C)=O)n1 | 62 (≈ 17.6 µg/mL) | > 100 | > 100 | 
CCNc1ccc(F)c(Nc2c(CC)cccc2CC)n1 | > 100 | 12 |  | 
CCNc1nc(Nc2c(CC)cccc2CC)ccc1F | > 100 | 7.2 |  | 
CCNc1cccc(Nc2c(CC)cccc2CC)n1 | 42 (≈ 11.3 µg/mL) | 3.3 | 0.71 | IC50 [11]: 11 µM; IC50 [12]: 8.1 µM; IC50 [13]: 6.9 µM
CCNc1nc(Nc2c(CC)cccc2CC)ccc1C | 54 (≈ 15.3 µg/mL) | 23 |  | 
CCNc1cccc(Nc2c(C3CC3)cccc2C2CC2)n1 | 22 (≈ 6.46 µg/mL) | 8.4 |  | 
CCNc1cc(OC)cc(Nc2c(CC)cccc2CC)n1 | 16 (≈ 4.79 µg/mL) | 0.72 | 5 | IC50 [11]: 5.7 µM; IC50 [12]: 3.4 µM; IC50 [13]: 3.7 µM

From ChEMBL document CHEMBL5360611, “Mycobacterium tuberculosis PptT Inhibitors Based on Heterocyclic Replacements of Amidinoureas” (ACS Med Chem Lett, 2023)
